Data reported in patent US20260083687A1, “COMPOUNDS FOR REDUCING LACTATION AND IMPROVING HEALTH” (AHV International B.V., priority 2022, published 2026).

Tests used:
[1] = tested on: Holstein Frisian dairy cows; assay: Effect of 80 ml synthetic DPD on udder pressure, stress behavior and milk leakage after abrupt dry off (Example 3); format: in vivo, cow
Method: Holstein Frisian dairy cows were selected with a production of at least 12.5 kg milk/day at the last lactation. These cows were immediately treated after the last milking before abrupt dry off with 80 ml di-n-propyl disulfide (DPD) took place in the three studies of this example. Because of a limited number of available cows, a control group was available only in study 3. Treated cows were monitored for udder pressure, milk leakage and stress after the last milking every 12 hours for the first 72 hours.
46 Dairy cows (Holstein Frisian) from 7 farms in The Netherlands were enrolled in this field study for two months. In table 8 a description is presented with respect to some keeping conditions of and information about the cows.
After the last milking, the cows were isolated from the other lactating cows. Only at farm 2 and 6 the cows could hear the milking machine. After isolation the cows were administered 80 ml synthetic DPD. Hereafter, the cows were monitored by the farmer for 72 hours and scored each 12 hour after abrupt dry off. The farmer scored visually for milk leakage (yes/no-scores), udder pressure and stress according to a standard scoring form (see tables 9 and 10). Cows somatic cell count numbers were extracted from the last milk recording before drying and the first milk recording after calving (5-30 Days In Lactation).
Data analysis: the control groups with respect to milk leakage, udder stress and stress were scored and compared with the data as presented earlier in literature. For milk leakage, the data were compared assumed that 24.5% of the cows are going to leak milk after drying off (De Prado-Taranilla et al., 2020. Incidence of milk leakage after dry-off in European dairy herds, related risk factors, and its role in new intramammary infections. Journal of Dairy Science, 103(10), 9224-9237.). Udder Pressure (Bertulat et al., 2013. Measurement of fecal glucocorticoid metabolites and evaluation of udder characteristics to estimate stress after sudden dry-off in dairy cows with different milk yields. Journal of Dairy Science, 96(6), 3774-3787) and Stress (Chapinal et al., 2014. Changes in lying behavior after abrupt cessation of milking and regrouping at dry-off in free stall-housed cows: A case study. Journal of Veterinary Behavior, 9(6), 364-369;) were translated to the scoring tables as expected outcome (table 11).

cows = assay: Administering of DPD at abrupt dry off and occurrence of mastitis / new intramammary infections, milk leakage, SCC (Example 10); format: in vivo, cow
Method: Study design. Cow description. 59 cows from 5 different farms were used for this study. The cows were randomly divided into 3 groups: • Control group; • DPD Treatment group 1: DC Liquid (500 mL) group (composition with 80 ml pure dipropyl disulfide); and • DPD Treatment group 2: DPD enriched onion Extract (OE) bolus (150 mL) group (corresponding to 80 ml pure dipropyl disulfide).
The control group consisted of 24 cows with an average milk production prior to dry off of 17.23 liters. […] The average lactation of the control group was 2.1 and they had on average a dry period of 48 days (10 animals in 1st lactation, 4 in 2nd lactation, 6 in 3th lactation and 4 in 4th lactation). 50% of all cows in the control group were observed leaking milk regardless of milk production prior to dry off, and the incidence goes up to 63% if the cows with production below or equal to 12.5 liters prior to dry off or discarded.
The DC Liquid treatment group consisted of 18 cows with an average mp prior to dry off of 21.61 liters (1 cow with a mp lower than 12.5 liters, lowest 11.40 liters and highest 32 liters). The average lactation of the DC Liquid group was 1.9 with 11 cows in 1st lactation, 2 cows in 2nd, 3 cows in 3th, and 2 cows in 5th lactation. The average dry period of this group was 49 days.
The DPD enriched OE bolus treatment group consisted of 17 cows with an average mp prior to dry off of 20.6 liters (lowest 13.8 and high 32 liters) and an average lactation of 2.2 (6 cows in 1 s lactation, 4 cows in 2nd, 4 cows in 3th, and 3 cows in 4th lactation). 1 cow dropped out during the dry period because of non-related lameness issues. The dry period of this group was on average 46 days.
After the last milking the cows received the dry off protocol according to the farms protocols. The DPD treatment groups received a DPD treatment in the form of a bolus dose by bolus shooter in the rumen. Both treatment groups consisted of treatment with 80 ml DPD. In all cases abrupt dry-off was applied, with no restriction in number of milking nor change of feed prior to dry-off. Before moving to the dry pen all cows underwent hoof trimming. During the dry period and after calving the cows were monitored for signs of mastitis. Before the cows were 30 days in lactation a SCC was determined to evaluate the dry period.
Intramammary infections (IMI) were defined as signs of a clinical mastitis (ao. Flocks, watery milk, coloring of milk) cases during the dry period and in the first 30 days in lactation or a rise in individual somatic cell count (ISCC) from before to after the dry period (threshold: 200,000 cells/mL) or both.

[2] = 80 ml synthetic DPD, abrupt dry off, vs control group

**Q.** For `CCCSSCCC` [DPD, di-n-propyl disulfide], which side effects ([1]; 80 ml synthetic DPD after last milking, 46 cows) is on record?
**A.** None of the cows showed any side effects

**Q.** And the “milk fever at calving” value ([1]; 80 ml synthetic DPD at dry off)?
**A.** None of the cows had milk fever at calving

**Q.** And the “average SCC (somatic cell count)” value ([1]; 80 ml synthetic DPD at dry off, first milk recording of the new lactation)?
**A.** 58,000 cells/ml

**Q.** And the milk leakage [1, 2]?
**A.** less milk leakage

**Q.** And the stress [1, 2]?
**A.** lower

**Q.** What about the udder pressure [1, 2] of the same compound?
**A.** lower udder pressure

**Q.** What about the “average SCC (somatic cell count)” value ([1]; last milk recording of the last lactation (before dry off)) of the same compound?
**A.** 89,000 cells/ml

**Q.** And the “outcome of animals that entered the dry period diagnosed with an IMI” value (cows; 3 animals (2 DC Liquid, 1 DPD enriched OE))?
**A.** all 3 recovered at the start of the new lactation

**Q.** What about the “animals diagnosed with a new IMI after calving” value (cows; 80 ml DPD at abrupt dry off) of the same compound?
**A.** 21%

**Q.** And the “cases with a decrease of SCC after calving” value (cows; 80 ml DPD at abrupt dry off)?
**A.** 61%

**Q.** And the “incidence of milk leakage” value (cows; 80 ml DPD at abrupt dry off, DPD treatment groups 1 and 2 combined)?
**A.** 17%

**Q.** What about the “reduction of risk of new IMI” value (cows; DPD treated groups combined vs control group) of the same compound?
**A.** 42%

**Q.** And the “reduction of incidence of milk leakage” value (cows; DPD treatment groups combined vs control group)?
**A.** 73%

**Q.** And the “cows with signs of mastitis (flocks in milk)” value (cows; after calving, DPD treatment group)?
**A.** 1 cow

**Q.** What about the “cows with signs of clinical mastitis” value (cows; during the dry period, DPD treatment group) of the same compound?
**A.** 1 cow
